Assay results as given in patent US20260125378A2, “Heterocyclic Compounds” (BeOne Medicines I GmbH, priority 2023, published 2026).

Assays:
[1] = molecular target: T1, Full length DGKζ (in-house protein M1-V929) (Homo sapiens, UniProt Q13574); experiment: Biochemical DGK IC50 assay (ADP-Glo, lipid micelle substrate), DGKζ; settings: 1 hour preincubation, 1 hour reaction, room temperature
T1 construct: His (N); TEV site (N); made in house; host or cells: Sf9 insect cells (Bac-to-Bac baculovirus)
Summary of the method: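 Enzyme: full-length human DGKζ M1-V929, produced in baculovirus-infected Sf9 cells; substrate DAG/PS micelles. Buffer 50 mM HEPES, 10 mM MgCl2, 0.01 mM CaCl2, 0.1 mM Na3VO4.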

[2] = molecular target: T2, Full length DGKα (D21-10BG, SignalChem) (Homo sapiens, UniProt P23743); experiment: Biochemical DGK IC50 assay (ADP-Glo, lipid micelle substrate), DGKα; settings: 1 hour preincubation, 1 hour reaction, room temperature
T2 construct: Full length DGKα (D21-10BG, SignalChem); purchased SignalChem D21-10BG
Summary of the method: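 ADP-Glo luminescence quantified ADP produced after a 1 h room-temperature reaction of full-length DGKα on DAG/PS micelles, in HEPES buffer containing MgCl2, CaCl2, vanadate, BSA and Tween-20. IC50 values derive from activity inhibition over a compound concentration series.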

T1 sequence (Q13574 1-929 isoform Q13574-4): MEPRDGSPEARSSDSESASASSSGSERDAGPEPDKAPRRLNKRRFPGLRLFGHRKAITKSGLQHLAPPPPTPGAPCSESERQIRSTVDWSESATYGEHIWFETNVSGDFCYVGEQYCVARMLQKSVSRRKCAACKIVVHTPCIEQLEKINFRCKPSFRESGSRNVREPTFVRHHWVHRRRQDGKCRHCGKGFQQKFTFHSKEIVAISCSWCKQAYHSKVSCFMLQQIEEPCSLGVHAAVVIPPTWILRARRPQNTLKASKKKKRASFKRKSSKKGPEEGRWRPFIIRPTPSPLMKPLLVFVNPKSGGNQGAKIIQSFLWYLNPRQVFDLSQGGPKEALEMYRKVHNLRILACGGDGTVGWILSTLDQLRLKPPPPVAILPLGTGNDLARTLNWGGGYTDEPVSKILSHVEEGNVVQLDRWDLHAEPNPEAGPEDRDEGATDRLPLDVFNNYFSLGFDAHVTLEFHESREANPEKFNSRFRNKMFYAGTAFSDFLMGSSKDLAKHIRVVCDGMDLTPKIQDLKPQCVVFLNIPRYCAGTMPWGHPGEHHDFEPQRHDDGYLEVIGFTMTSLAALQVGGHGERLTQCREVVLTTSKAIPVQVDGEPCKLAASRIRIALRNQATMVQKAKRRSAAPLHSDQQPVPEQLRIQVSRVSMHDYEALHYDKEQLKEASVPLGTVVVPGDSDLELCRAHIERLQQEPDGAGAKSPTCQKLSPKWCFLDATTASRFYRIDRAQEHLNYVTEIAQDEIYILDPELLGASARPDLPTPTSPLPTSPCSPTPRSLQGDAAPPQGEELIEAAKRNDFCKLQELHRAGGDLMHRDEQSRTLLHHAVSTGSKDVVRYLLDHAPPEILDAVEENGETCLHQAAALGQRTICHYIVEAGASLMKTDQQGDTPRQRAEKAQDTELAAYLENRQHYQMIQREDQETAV
T2 sequence (P23743 whole entry): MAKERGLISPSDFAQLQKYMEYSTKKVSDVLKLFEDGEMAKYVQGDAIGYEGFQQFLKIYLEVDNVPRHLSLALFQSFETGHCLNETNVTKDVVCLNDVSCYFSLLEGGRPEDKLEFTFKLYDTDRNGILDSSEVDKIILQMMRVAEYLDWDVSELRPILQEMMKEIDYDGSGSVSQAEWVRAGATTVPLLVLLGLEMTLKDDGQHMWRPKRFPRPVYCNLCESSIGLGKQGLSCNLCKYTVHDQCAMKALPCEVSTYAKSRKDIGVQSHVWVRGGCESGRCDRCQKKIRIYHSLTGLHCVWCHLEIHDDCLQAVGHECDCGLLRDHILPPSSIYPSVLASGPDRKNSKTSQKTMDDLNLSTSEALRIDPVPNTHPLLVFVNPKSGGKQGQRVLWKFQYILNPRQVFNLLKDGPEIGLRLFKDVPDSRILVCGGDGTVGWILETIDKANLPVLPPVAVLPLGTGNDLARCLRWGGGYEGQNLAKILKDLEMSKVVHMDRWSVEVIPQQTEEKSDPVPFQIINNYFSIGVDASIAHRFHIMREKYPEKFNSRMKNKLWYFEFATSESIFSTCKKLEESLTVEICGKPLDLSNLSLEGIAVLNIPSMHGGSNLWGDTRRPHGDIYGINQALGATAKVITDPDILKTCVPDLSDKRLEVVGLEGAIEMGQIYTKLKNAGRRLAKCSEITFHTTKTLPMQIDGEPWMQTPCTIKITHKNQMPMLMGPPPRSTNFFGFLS

| Structure (SMILES) | IC50 [1] [nM] | IC50 [2] [nM] |
| --- | --- | --- |
| CCn1c(CC#N)nc2c(N3C[C@@H](C)N(C(C)c4ccc5c(c4)C(=O)N(C)CC5)C[C@@H]3C)nc(=O)n(C)c21 (stereo partly drawn) [Compound A93, 2-(6-((2S,5R)-2,5-dimethyl-4-(1-(2-methyl-1-oxo-1,2,3,4-tetrahydroisoquinolin-7-yl)ethyl)piperazin-1-yl)-9-ethyl-3-methyl-2-oxo-3,9-dihydro-2H-purin-8-yl)acetonitrile] | 414 | > 150000 |
| CCn1c(CC#N)nc2c(N3C[C@@H](C)N(C(C)c4cc(F)c5c(c4)OC(C)(C)O5)C[C@@H]3C)nc(=O)n(C)c21 (single isomer, unassigned) [Compound A173b] | 412 | 83300 |
| CCn1c(CC#N)nc2c(N3C[C@@H](C)N(C(C)c4cccc5c4OC(C)(C)O5)C[C@@H]3C)nc(=O)n(C)c21 (stereo partly drawn) [Compound A186, 2-(6-((2S,5R)-4-(1-(2,2-dimethylbenzo[d][1,3]dioxol-4-yl)ethyl)-2,5-dimethylpiperazin-1-yl)-9-ethyl-3-methyl-2-oxo-3,9-dihydro-2H-purin-8-yl)acetonitrile] | 156 | 143000 |
| CC(c1ccc2nccnc2c1)N1C[C@H](C)N(c2nc(=O)n(C)c3c2nc(CC#N)n3C)C[C@H]1C (stereo partly drawn) [Compound A48, 2-(6-((2S,5R)-2,5-dimethyl-4-(1-(quinoxalin-6-yl)ethyl)piperazin-1-yl)-3,9-dimethyl-2-oxo-3,9-dihydro-2H-purin-8-yl)acetonitrile] | 29 | 44600 |
| CCn1c(CC#N)nc2c(N3C[C@@H](C)N(C(C)c4cc5c(cc4Cl)OC(C)(C)O5)C[C@@H]3C)nc(=O)n(C)c21 (stereo partly drawn) [Compound A170, 2-(6-((2S,5R)-4-(1-(6-chloro-2,2-dimethylbenzo[d][1,3]dioxol-5-yl)ethyl)-2,5-dimethylpiperazin-1-yl)-9-ethyl-3-methyl-2-oxo-3,9-dihydro-2H-purin-8-yl)acetonitrile] | 1180 | > 150000 |
| CC[C@@H]1CN(c2nc(=O)n(C)c3c2nc(CC#N)n3CC)[C@@H](C)CN1C(C)c1ccc2c(c1)OC(C)(C)CO2 (stereo partly drawn) [Compound A65, 2-(6-((2S,5R)-4-(1-(3,3-dimethyl-2,3-dihydrobenzo[b][1,4]dioxin-6-yl)ethyl)-5-ethyl-2-methylpiperazin-1-yl)-9-ethyl-3-methyl-2-oxo-3,9-dihydro-2H-purin-8-yl)acetonitrile] | 2.3 | 24200 |
| CCn1c(CC#N)nc2c(N3C[C@@H](C)N(C(C)c4ccc5sc(C(C)C)nc5c4)C[C@@H]3C)nc(=O)n(C)c21 (stereo partly drawn) [Compound A96, 2-(9-ethyl-6-((2S,5R)-4-(1-(2-isopropylbenzo[d]thiazol-5-yl)ethyl)-2,5-dimethylpiperazin-1-yl)-3-methyl-2-oxo-3,9-dihydro-2H-purin-8-yl)acetonitrile] | 63 | 49600 |
| CC(c1ccc2c(c1)OCCO2)N1C[C@H](C)N(c2nc(=O)n(C)c3c2nc(CC#N)n3C)C[C@H]1C (stereo partly drawn) [Compound A58, 2-(6-((2S,5R)-4-(1-(2,3-dihydrobenzo[b][1,4]dioxin-6-yl)ethyl)-2,5-dimethylpiperazin-1-yl)-3,9-dimethyl-2-oxo-3,9-dihydro-2H-purin-8-yl)acetonitrile] | 40 | > 10000 |
| CCn1c(CC#N)nc2c(N3C[C@@H](C)N(C(C)c4ccc5c(c4)OC(C)(C)CO5)C[C@@H]3C)nc(=O)n(C)c21 (single isomer, unassigned) [Compound A60a] | 3.3 | 72500 |
| CCn1c(CC#N)nc2c(N3C[C@@H](C)N(C(C)c4ccc5c(c4)OC(C)(C)CO5)C[C@@H]3C)c(F)c(=O)n(C)c21 (stereo partly drawn) [Compound A20, 2-(7-((2S,5R)-4-(1-(3,3-dimethyl-2,3-dihydrobenzo[b][1,4]dioxin-6-yl)ethyl)-2,5-dimethylpiperazin-1-yl)-3-ethyl-6-fluoro-4-methyl-5-oxo-4,5-dihydro-3H-imidazo[4,5-b]pyridin-2-yl)acetonitrile] | 5 | 93000 |
| CC#CC(c1ccc(C)cc1)N1C[C@H](C)N(c2nc(=O)n(C)c3c2nc(CC#N)n3CC)C[C@H]1C (stereo partly drawn) [Compound A145, 2-(6-((2S,5R)-2,5-dimethyl-4-(1-(p-tolyl)but-2-yn-1-yl)piperazin-1-yl)-9-ethyl-3-methyl-2-oxo-3,9-dihydro-2H-purin-8-yl)acetonitrile] | 480 | 5620 |
| CC(c1cc2c(cc1F)OCC(C)(C)O2)N1C[C@H](C)N(c2nc(=O)n(C)c3c2nc(CC#N)n3C)C[C@H]1C (stereo partly drawn) [Compound A69, 2-(6-((2S,5R)-4-(1-(7-fluoro-3,3-dimethyl-2,3-dihydrobenzo[b][1,4]dioxin-6-yl)ethyl)-2,5-dimethylpiperazin-1-yl)-3,9-dimethyl-2-oxo-3,4,5,9-tetrahydro-2H-purin-8-yl)acetonitrile] | 6 | 3070 |
| CC[C@@H]1CN(c2nc(=O)n(C)c3c2nc(CC#N)n3C)[C@@H](C)CN1C(C)c1ccc2c(n1)OC(C)(C)CO2 (single isomer, unassigned) [Compound A159b] | 691 | 63400 |
| CC(c1ccc2c(c1)OC(C)(C)O2)N1C[C@H](C)N(c2nc(=O)n(C)c3c2nc(CC#N)n3C)C[C@H]1C (single isomer, unassigned) [Compound A98a] | 5 | 14300 |
| CCn1c(CC#N)nc2c(N3C[C@@H](C)N(C(C)c4ccc5c(n4)OC(C)(C)CO5)C[C@@H]3C)nc(=O)n(C)c21 (stereo partly drawn) [Compound A74, 2-(6-((2S,5R)-4-(1-(3,3-dimethyl-2,3-dihydro-[1,4]dioxino[2,3-b]pyridin-6-yl)ethyl)-2,5-dimethylpiperazin-1-yl)-9-ethyl-3-methyl-2-oxo-3,9-dihydro-2H-purin-8-yl)acetonitrile] | 45 | > 150000 |
| CCn1c(CC#N)nc2c(N3C[C@@H](C)N(C(C)c4cc(F)c5c(c4)OC(C)(C)O5)C[C@@H]3C)c(F)c(=O)n(C)c21 (stereo partly drawn) [Compound A189, 2-(3-ethyl-6-fluoro-7-((2S,5R)-4-(1-(7-fluoro-2,2-dimethylbenzo[d][1,3]dioxol-5-yl)ethyl)-2,5-dimethylpiperazin-1-yl)-4-methyl-5-oxo-4,5-dihydro-3H-imidazo[4,5-b]pyridin-2-yl)acetonitrile] | 34 | > 150000 |
| CCn1c(CC#N)nc2c(N3C[C@@H](C)N(C(C)c4ccc5c(c4)OC(C)(C)O5)C[C@@H]3C)nc(=O)n(C)c21 (single isomer, unassigned) [Compound A85a] | 1250 | 148000 |
| CCn1c(CC#N)nc2c(N3C[C@@H](C)N(C(C)c4c(F)cc5c(c4F)OC(C)(C)O5)C[C@@H]3C)nc(=O)n(C)c21 (single isomer, unassigned) [Compound A176b] | 7 | 7190 |
| CC[C@H]1CN(C(C)c2ccc(C(F)(F)F)cc2)[C@H](CC)CN1c1nc(=O)n(C)c2c1nc(CC#N)n2C (single isomer, unassigned) [Compound A149b] | 15 | 308 |
| CCn1c(CC#N)nc2c(N3C[C@@H](C)N(C(C)c4cc5c(cc4Cl)OCC(C)(C)O5)C[C@@H]3C)nc(=O)n(C)c21 (stereo partly drawn) [Compound A73, 2-(6-((2S,5R)-4-(1-(7-chloro-3,3-dimethyl-2,3-dihydrobenzo[b][1,4]dioxin-6-yl)ethyl)-2,5-dimethylpiperazin-1-yl)-9-ethyl-3-methyl-2-oxo-3,9-dihydro-2H-purin-8-yl)acetonitrile] | 639 | > 150000 |
| CC(c1cccnc1C(F)(F)F)N1C[C@H](C)N(c2cc(=O)n(C)c3c2nc(CC#N)n3C)C[C@H]1C (single isomer, unassigned) [Compound A7a] | 3110 | > 10000 |
| CCn1c(CC#N)nc2c(N3C[C@@H](C)N(C(C)c4cnc5c(c4)OC(C)(C)CO5)C[C@@H]3C)nc(=O)n(C)c21 (stereo partly drawn) [Compound A76, 2-(6-((2S,5R)-4-(1-(2,2-dimethyl-2,3-dihydro-[1,4]dioxino[2,3-b]pyridin-7-yl)ethyl)-2,5-dimethylpiperazin-1-yl)-9-ethyl-3-methyl-2-oxo-3,9-dihydro-2H-purin-8-yl)acetonitrile] | 419 | > 150000 |
| CCn1c(CC#N)nc2c(N3C[C@@H](C)N(C(C)c4ccn(C)c(=O)c4)C[C@@H]3C)nc(=O)n(C)c21 (stereo partly drawn) [Compound A107, 2-(6-((2S,5R)-2,5-dimethyl-4-(1-(1-methyl-2-oxo-1,2-dihydropyridin-4-yl)ethyl)piperazin-1-yl)-9-ethyl-3-methyl-2-oxo-3,9-dihydro-2H-purin-8-yl)acetonitrile] | > 10000 | > 150000 |
| CC(c1cc(F)c2c(c1)OC(C)(C)CO2)N1C[C@H](C)N(c2nc(=O)n(C)c3c2nc(CC#N)n3C)C[C@H]1C (single isomer, unassigned) [Compound A68b] | 199 | 72800 |
| CC(c1ccc2c(c1)OC(C)(C)CO2)N1C[C@H](C)N(c2c(F)c(=O)n(C)c3c2nc(CC#N)n3C)C[C@H]1C (single isomer, unassigned) [Compound A19a] | 2.8 | 27500 |
| Cc1ccc(C(C)N2C[C@H](C)N(c3cc(=O)n(C)c4c3nc(CC#N)n4C)C[C@H]2C)cc1 (single isomer, unassigned) [Compound A5b] | 88 | 616 |
| CC(c1cc(F)c2c(c1)OC(C)(C)CO2)N1C[C@H](C)N(c2nc(=O)n(C)c3c2nc(CC#N)n3C)C[C@H]1C (mixture of isomers) [Compound A68, 2-(6-((2S,5R)-4-(1-(8-fluoro-3,3-dimethyl-2,3-dihydrobenzo[b][1,4]dioxin-6-yl)ethyl)-2,5-dimethylpiperazin-1-yl)-3,9-dimethyl-2-oxo-3,9-dihydro-2H-purin-8-yl)acetonitrile] | 7 | 43800 |
